Key:
[1] = target: Rhodopsin kinase GRK7 (Homo sapiens) (UniProt Q8WTQ7); test: GRK7(h) Kinase panel; conditions: Compound concentration 1.0 uM, tested as the 2H-labelled form
[2] = target: Ephrin type-A receptor 7 (Homo sapiens) (UniProt Q15375); test: EphA7(h) Kinase panel; conditions: Compound concentration 1.0 uM, tested as the 2H-labelled form
[3] = target: Serine/threonine-protein kinase SIK2 (Homo sapiens) (UniProt Q9H0K1); test: SIK2(h) Kinase panel; conditions: Compound concentration 1.0 uM, tested as the 2H-labelled form
[4] = target: Ephrin type-B receptor 1 (Homo sapiens) (UniProt P54762); test: EphB1(h) Kinase panel; conditions: Compound concentration 1.0 uM, tested as the 2H-labelled form
[5] = target: Sodium-dependent serotonin transporter (Homo sapiens) (UniProt P31645); conditions: Compound concentration 10.0 uM, tested as the 2H-labelled form
[6] = target: Tyrosine-protein kinase ABL2 (Homo sapiens) (UniProt P42684); test: Arg(h) Kinase panel; conditions: Compound concentration 1.0 uM, tested as the 2H-labelled form
[7] = target: cAMP-dependent protein kinase catalytic subunit alpha (Homo sapiens) (UniProt P17612); test: PKA(h) Kinase panel; conditions: Compound concentration 1.0 uM, tested as the 2H-labelled form
[8] = target: Dual specificity mitogen-activated protein kinase kinase 6 (Homo sapiens) (UniProt P52564); test: MKK6(h) Kinase panel; conditions: Compound concentration 1.0 uM, tested as the 2H-labelled form
[9] = target: Ribosomal protein S6 kinase alpha-1 (Homo sapiens) (UniProt Q15418); test: Rsk1(h) Kinase panel; conditions: Compound concentration 1.0 uM, tested as the 2H-labelled form
[10] = target: Receptor tyrosine-protein kinase erbB-4 (Homo sapiens) (UniProt Q15303); test: ErbB4(h) Kinase panel; conditions: Compound concentration 1.0 uM, tested as the 2H-labelled form
Receptor tyrosine-protein kinase erbB-4 (Homo sapiens), sequence (Q15303 whole entry): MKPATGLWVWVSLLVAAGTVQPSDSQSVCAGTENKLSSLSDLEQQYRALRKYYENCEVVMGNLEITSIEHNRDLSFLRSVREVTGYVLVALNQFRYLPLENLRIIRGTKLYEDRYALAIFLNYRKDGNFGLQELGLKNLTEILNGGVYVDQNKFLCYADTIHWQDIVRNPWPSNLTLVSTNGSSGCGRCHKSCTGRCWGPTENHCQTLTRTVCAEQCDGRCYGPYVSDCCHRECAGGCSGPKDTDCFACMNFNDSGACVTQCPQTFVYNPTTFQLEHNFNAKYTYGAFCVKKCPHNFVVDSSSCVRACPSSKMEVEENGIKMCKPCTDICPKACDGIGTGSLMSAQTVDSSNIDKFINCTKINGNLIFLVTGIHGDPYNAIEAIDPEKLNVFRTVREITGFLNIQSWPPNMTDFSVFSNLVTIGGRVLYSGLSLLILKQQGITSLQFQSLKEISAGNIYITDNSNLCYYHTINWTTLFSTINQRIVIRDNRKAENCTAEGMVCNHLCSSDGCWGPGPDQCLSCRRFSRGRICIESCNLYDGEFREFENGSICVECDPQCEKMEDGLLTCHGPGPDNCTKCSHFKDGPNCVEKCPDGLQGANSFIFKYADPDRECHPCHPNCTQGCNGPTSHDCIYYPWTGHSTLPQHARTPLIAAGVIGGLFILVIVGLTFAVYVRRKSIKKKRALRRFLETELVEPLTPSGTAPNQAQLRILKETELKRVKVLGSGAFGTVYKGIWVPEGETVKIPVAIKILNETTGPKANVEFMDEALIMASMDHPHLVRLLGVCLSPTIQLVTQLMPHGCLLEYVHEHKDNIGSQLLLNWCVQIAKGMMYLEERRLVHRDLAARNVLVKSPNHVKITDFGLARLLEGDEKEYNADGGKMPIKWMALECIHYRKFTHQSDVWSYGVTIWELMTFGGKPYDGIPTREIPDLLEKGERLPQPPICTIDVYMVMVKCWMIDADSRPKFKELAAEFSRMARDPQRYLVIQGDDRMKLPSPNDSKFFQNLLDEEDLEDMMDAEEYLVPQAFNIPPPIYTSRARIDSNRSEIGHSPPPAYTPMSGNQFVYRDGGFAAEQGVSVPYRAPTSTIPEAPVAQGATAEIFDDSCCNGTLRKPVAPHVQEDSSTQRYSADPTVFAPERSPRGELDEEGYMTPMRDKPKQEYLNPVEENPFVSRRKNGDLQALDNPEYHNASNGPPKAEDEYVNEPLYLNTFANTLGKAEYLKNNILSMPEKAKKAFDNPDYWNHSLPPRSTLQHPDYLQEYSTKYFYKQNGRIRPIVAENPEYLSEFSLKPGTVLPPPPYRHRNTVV

[11] = target: Death-associated protein kinase 2 (Homo sapiens) (UniProt Q9UIK4); test: DAPK2(h) Kinase panel; conditions: Compound concentration 1.0 uM, tested as the 2H-labelled form
[12] = target: Glycogen synthase kinase-3 beta (Homo sapiens) (UniProt P49841); test: GSK3β(h) Kinase panel; conditions: Compound concentration 1.0 uM, tested as the 2H-labelled form
[13] = target: Serine/threonine-protein kinase haspin (Homo sapiens) (UniProt Q8TF76); test: Haspin(h) Kinase panel; conditions: Compound concentration 1.0 uM, tested as the 2H-labelled form
[14] = target: Serine/threonine-protein kinase ATR (Homo sapiens) (UniProt Q13535); test: ATR/ATRIP(h) Kinase panel; conditions: Compound concentration 1.0 uM, tested as the 2H-labelled form
[15] = target: Dual specificity tyrosine-phosphorylation-regulated kinase 3 (Homo sapiens) (UniProt O43781); test: DYRK3(h) Kinase panel; conditions: Compound concentration 1.0 uM, tested as the 2H-labelled form
[16] = target: eIF-2-alpha kinase GCN2 (Homo sapiens) (UniProt Q9P2K8); test: GCN2(h) Kinase panel; conditions: Compound concentration 1.0 uM, tested as the 2H-labelled form
eIF-2-alpha kinase GCN2 (Homo sapiens), sequence (Q9P2K8 whole entry): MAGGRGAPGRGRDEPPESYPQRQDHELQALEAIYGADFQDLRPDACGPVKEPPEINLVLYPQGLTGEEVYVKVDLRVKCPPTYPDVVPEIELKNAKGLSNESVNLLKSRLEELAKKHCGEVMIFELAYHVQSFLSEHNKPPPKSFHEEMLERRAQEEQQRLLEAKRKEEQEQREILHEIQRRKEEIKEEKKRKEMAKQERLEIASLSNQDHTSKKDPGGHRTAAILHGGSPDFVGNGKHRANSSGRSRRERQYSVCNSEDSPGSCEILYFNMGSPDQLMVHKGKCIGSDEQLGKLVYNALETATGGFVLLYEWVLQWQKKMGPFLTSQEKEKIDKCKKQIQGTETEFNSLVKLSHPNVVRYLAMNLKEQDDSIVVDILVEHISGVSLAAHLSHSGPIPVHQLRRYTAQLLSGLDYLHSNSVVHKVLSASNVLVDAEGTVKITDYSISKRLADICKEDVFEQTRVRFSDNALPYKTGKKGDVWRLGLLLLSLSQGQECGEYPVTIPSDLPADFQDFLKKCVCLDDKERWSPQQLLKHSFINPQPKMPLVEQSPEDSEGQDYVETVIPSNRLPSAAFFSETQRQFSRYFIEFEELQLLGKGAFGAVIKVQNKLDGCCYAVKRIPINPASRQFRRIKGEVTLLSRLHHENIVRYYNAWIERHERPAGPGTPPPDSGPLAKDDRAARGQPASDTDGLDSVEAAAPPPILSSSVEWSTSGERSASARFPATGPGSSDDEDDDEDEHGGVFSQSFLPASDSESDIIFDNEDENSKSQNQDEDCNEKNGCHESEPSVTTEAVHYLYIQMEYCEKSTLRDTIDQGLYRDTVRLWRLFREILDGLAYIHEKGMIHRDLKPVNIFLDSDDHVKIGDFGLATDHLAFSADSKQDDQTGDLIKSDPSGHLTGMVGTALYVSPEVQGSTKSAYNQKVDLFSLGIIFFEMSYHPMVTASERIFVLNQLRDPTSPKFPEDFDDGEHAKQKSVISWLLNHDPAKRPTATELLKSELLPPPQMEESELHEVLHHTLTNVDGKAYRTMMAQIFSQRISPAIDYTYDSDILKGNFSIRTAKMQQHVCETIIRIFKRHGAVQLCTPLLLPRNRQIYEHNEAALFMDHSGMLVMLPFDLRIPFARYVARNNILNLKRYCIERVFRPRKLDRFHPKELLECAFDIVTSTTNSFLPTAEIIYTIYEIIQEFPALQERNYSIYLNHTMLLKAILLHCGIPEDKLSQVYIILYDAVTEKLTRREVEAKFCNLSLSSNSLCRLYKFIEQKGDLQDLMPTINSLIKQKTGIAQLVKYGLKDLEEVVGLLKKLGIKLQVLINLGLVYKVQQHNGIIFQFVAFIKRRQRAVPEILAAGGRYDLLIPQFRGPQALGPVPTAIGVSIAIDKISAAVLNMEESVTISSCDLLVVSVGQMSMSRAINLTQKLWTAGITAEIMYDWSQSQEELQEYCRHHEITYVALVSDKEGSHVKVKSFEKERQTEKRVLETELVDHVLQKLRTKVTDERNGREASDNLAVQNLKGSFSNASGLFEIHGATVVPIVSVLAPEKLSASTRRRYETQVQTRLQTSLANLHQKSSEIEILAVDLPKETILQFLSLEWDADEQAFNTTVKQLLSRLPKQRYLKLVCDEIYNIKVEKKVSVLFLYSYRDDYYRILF

[17] = target: Ribosomal protein S6 kinase alpha-4 (Homo sapiens) (UniProt O75676); test: MSK2(h) Kinase panel; conditions: Compound concentration 1.0 uM, tested as the 2H-labelled form
[18] = target: 5-hydroxytryptamine receptor 1E (Homo sapiens) (UniProt P28566); conditions: Compound concentration 10.0 uM, tested as the 2H-labelled form
[19] = target: Activin receptor type-1-like (Homo sapiens) (UniProt P37023); test: ALK1(h) Kinase panel; conditions: Compound concentration 1.0 uM, tested as the 2H-labelled form
[20] = target: Histamine H3 receptor (Homo sapiens) (UniProt Q9Y5N1); conditions: Compound concentration 10.0 uM, tested as the 2H-labelled form
[21] = target: Mitogen-activated protein kinase kinase kinase 7 (Homo sapiens) (UniProt O43318); test: TAK1(h) Kinase panel; conditions: Compound concentration 1.0 uM, tested as the 2H-labelled form
[22] = target: Serine/threonine-protein kinase DCLK2 (Homo sapiens) (UniProt Q8N568); test: DCAMKL2(h) Kinase panel; conditions: Compound concentration 1.0 uM, tested as the 2H-labelled form
[23] = target: Homeodomain-interacting protein kinase 2 (Homo sapiens) (UniProt Q9H2X6); test: HIPK2(h) Kinase panel; conditions: Compound concentration 1.0 uM, tested as the 2H-labelled form
[24] = target: Calcium/calmodulin-dependent protein kinase type II subunit delta (Homo sapiens) (UniProt Q13557); test: CaMKIIdelta(h) Kinase panel; conditions: Compound concentration 1.0 uM, tested as the 2H-labelled form
[25] = target: Cell division cycle 7-related protein kinase (Homo sapiens) (UniProt O00311); test: Cdc7/cyclinB1(h) Kinase panel; conditions: Compound concentration 1.0 uM, tested as the 2H-labelled form
[26] = target: Serine/threonine-protein kinase Nek7 (Homo sapiens) (UniProt Q8TDX7); test: NEK7(h) Kinase panel; conditions: Compound concentration 1.0 uM, tested as the 2H-labelled form
[27] = target: Serine/threonine-protein kinase 4 (Homo sapiens) (UniProt Q13043); test: MST1(h) Kinase panel; conditions: Compound concentration 1.0 uM, tested as the 2H-labelled form
[28] = target: Serine/threonine-protein kinase PLK1 (Homo sapiens) (UniProt P53350); test: Plk1(h) Kinase panel; conditions: Compound concentration 1.0 uM, tested as the 2H-labelled form
[29] = target: cGMP-dependent protein kinase 2 (Homo sapiens) (UniProt Q13237); test: PRKG2(h) Kinase panel; conditions: Compound concentration 1.0 uM, tested as the 2H-labelled form
cGMP-dependent protein kinase 2 (Homo sapiens), sequence (Q13237 whole entry): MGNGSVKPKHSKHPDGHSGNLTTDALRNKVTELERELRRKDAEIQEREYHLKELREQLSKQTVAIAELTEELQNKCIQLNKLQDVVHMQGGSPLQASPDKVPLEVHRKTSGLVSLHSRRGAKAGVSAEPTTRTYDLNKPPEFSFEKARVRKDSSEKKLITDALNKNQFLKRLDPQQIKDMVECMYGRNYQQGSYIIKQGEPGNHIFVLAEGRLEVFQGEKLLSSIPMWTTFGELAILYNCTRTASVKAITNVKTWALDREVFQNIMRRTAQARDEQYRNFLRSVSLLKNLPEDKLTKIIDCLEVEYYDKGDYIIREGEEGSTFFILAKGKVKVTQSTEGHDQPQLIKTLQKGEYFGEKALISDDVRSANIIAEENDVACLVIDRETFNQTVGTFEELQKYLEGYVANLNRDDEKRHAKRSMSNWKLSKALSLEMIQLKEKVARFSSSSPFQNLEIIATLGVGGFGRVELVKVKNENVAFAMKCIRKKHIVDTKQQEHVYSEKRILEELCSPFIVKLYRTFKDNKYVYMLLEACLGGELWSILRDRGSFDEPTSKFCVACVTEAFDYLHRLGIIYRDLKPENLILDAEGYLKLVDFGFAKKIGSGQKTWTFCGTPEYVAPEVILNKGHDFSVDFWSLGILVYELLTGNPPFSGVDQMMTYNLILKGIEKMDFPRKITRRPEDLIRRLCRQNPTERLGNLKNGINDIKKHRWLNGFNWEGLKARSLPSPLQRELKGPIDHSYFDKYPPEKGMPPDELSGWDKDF

[30] = target: Testis-specific serine/threonine-protein kinase 2 (Homo sapiens) (UniProt Q96PF2); test: TSSK2(h) Kinase panel; conditions: Compound concentration 1.0 uM, tested as the 2H-labelled form
[31] = target: Transcription initiation factor TFIID subunit 1-like (Homo sapiens) (UniProt Q8IZX4); test: TAF1L(h) Kinase panel; conditions: Compound concentration 1.0 uM, tested as the 2H-labelled form
[32] = target: Serine/threonine-protein kinase TAO1 (Homo sapiens) (UniProt Q7L7X3); test: TAO1(h) Kinase panel; conditions: Compound concentration 1.0 uM, tested as the 2H-labelled form
[33] = target: Serine/threonine-protein kinase NIM1 (Homo sapiens) (UniProt Q8IY84); test: NIM1(h) Kinase panel; conditions: Compound concentration 1.0 uM, tested as the 2H-labelled form
[34] = target: G protein-coupled receptor kinase 3 (Homo sapiens) (UniProt P35626); test: GRK3(h) Kinase panel; conditions: Compound concentration 1.0 uM, tested as the 2H-labelled form
[35] = target: Phosphatidylinositol 4-phosphate 5-kinase type-1 gamma (Homo sapiens) (UniProt O60331); test: PIP5K1g(h) Kinase panel; conditions: Compound concentration 1.0 uM, tested as the 2H-labelled form
[36] = target: Mitogen-activated protein kinase 12 (Homo sapiens) (UniProt P53778); test: SAPK3(h) Kinase panel; conditions: Compound concentration 1.0 uM, tested as the 2H-labelled form
[37] = target: Serine/threonine-protein kinase PAK 4 (Homo sapiens) (UniProt O96013); test: PAK4(h) Kinase panel; conditions: Compound concentration 1.0 uM, tested as the 2H-labelled form
[38] = target: SNF-related serine/threonine-protein kinase (Homo sapiens) (UniProt Q9NRH2); test: SNRK(h) Kinase panel; conditions: Compound concentration 1.0 uM, tested as the 2H-labelled form
[39] = target: 5'-AMP-activated protein kinase catalytic subunit alpha-2 (Homo sapiens, UniProt P54646); test: AMPKalpha2(h) Kinase panel; conditions: Compound concentration 1.0 uM, tested as the 2H-labelled form
[40] = target: SRSF protein kinase 1 (Homo sapiens) (UniProt Q96SB4); test: SRPK1(h) Kinase panel; conditions: Compound concentration 1.0 uM, tested as the 2H-labelled form
SRSF protein kinase 1 (Homo sapiens), sequence (Q96SB4 whole entry): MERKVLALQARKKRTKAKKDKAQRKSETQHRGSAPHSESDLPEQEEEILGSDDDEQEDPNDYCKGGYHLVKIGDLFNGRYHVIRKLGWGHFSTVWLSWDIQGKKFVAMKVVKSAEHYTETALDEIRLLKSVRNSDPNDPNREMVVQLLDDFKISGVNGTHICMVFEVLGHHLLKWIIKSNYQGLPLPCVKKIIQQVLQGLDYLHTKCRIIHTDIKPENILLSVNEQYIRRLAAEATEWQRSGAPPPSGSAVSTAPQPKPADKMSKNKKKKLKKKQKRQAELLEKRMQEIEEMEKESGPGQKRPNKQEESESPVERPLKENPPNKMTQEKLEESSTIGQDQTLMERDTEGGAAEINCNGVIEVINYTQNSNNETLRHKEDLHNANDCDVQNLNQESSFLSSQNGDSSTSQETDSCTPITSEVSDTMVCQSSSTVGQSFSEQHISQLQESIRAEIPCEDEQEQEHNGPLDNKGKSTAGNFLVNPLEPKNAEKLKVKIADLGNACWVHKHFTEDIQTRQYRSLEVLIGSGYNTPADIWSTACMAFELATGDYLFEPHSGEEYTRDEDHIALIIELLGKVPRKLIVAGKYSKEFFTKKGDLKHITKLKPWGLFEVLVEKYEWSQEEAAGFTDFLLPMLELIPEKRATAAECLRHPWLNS

[41] = target: Serine/threonine-protein kinase ULK3 (Homo sapiens) (UniProt Q6PHR2); test: ULK3(h) Kinase panel; conditions: Compound concentration 1.0 uM, tested as the 2H-labelled form
[42] = target: Serine/threonine-protein kinase VRK2 (Homo sapiens) (UniProt Q86Y07); test: VRK2(h) Kinase panel; conditions: Compound concentration 1.0 uM, tested as the 2H-labelled form
[43] = target: Maternal embryonic leucine zipper kinase (Homo sapiens) (UniProt Q14680); test: MELK(h) Kinase panel; conditions: Compound concentration 1.0 uM, tested as the 2H-labelled form
[44] = target: Serine/threonine-protein kinase MRCK gamma (Homo sapiens) (UniProt Q6DT37); test: MRCKgamma(h) Kinase panel; conditions: Compound concentration 1.0 uM, tested as the 2H-labelled form
[45] = target: Ephrin type-B receptor 4 (Homo sapiens) (UniProt P54760); test: EphB4(h) Kinase panel; conditions: Compound concentration 1.0 uM, tested as the 2H-labelled form
[46] = target: Serine/threonine-protein kinase LATS2 (Homo sapiens) (UniProt Q9NRM7); test: LATS2(h) Kinase panel; conditions: Compound concentration 1.0 uM, tested as the 2H-labelled form
[47] = target: Tyrosine-protein kinase ITK/TSK (Homo sapiens) (UniProt Q08881); test: Itk(h) Kinase panel; conditions: Compound concentration 1.0 uM, tested as the 2H-labelled form
[48] = target: Serine/threonine-protein kinase 38-like (Homo sapiens, UniProt Q9Y2H1); test: NDR2(h) Kinase panel; conditions: Compound concentration 1.0 uM, tested as the 2H-labelled form
[49] = target: Cyclin-dependent kinase 12 (Homo sapiens) (UniProt Q9NYV4); test: CDK12/cyclinK(h) Kinase panel; conditions: Compound concentration 1.0 uM, tested as the 2H-labelled form
[50] = target: Transient receptor potential cation channel subfamily M member 7 (Homo sapiens) (UniProt Q96QT4); test: ChaK1(h) Kinase panel; conditions: Compound concentration 1.0 uM, tested as the 2H-labelled form
[51] = target: Serine/threonine-protein kinase DCLK3 (Homo sapiens) (UniProt Q9C098); test: DCAMKL3(h) Kinase panel; conditions: Compound concentration 1.0 uM, tested as the 2H-labelled form
[52] = target: Protein kinase C eta type (Homo sapiens) (UniProt P24723); test: PKCeta (h) Kinase panel; conditions: Compound concentration 1.0 uM, tested as the 2H-labelled form
Protein kinase C eta type (Homo sapiens), sequence (P24723 whole entry): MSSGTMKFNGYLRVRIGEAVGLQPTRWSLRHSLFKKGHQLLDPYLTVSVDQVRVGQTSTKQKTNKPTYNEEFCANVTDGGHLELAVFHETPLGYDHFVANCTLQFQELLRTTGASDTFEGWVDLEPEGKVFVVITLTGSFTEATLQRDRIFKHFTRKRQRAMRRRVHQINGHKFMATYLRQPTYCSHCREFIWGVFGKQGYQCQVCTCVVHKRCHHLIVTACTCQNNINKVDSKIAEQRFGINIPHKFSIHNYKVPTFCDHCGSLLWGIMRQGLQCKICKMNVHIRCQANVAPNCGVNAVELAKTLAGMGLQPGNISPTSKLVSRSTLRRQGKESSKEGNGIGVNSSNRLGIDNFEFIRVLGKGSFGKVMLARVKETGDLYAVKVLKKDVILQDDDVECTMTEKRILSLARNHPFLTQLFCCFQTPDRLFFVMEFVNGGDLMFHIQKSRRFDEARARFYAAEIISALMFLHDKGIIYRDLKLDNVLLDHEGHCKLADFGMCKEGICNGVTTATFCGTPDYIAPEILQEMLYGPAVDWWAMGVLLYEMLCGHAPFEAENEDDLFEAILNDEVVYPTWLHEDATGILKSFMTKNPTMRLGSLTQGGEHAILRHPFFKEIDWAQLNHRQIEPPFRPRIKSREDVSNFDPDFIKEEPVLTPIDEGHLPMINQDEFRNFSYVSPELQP

Measured: inhibition

CC1(C)Cn2nc(-c3ccc(F)cn3)c(-c3ccnc4[nH]ncc34)c2CO1
inactive: [1] 16% | [2] 8% | [3] 0% | [4] 3% | [5] 2.66% | [6] 7% | [7] 16% | [8] 9% | [9] 9% | [10] 19% | [11] -7% | [12] 4% | [13] 9% | [14] 16% | [15] 7% | [16] -6% | [17] -1% | [18] 2.51% | [19] 4% | [20] -1.16% | [21] -5% | [22] 37% | [23] 21% | [24] -6% | [25] 10% | [26] 5% | [27] -4% | [28] 15% | [29] 11% | [30] 11% | [31] 3% | [32] -5% | [33] 13% | [34] 15% | [35] -1% | [36] 28% | [37] -5% | [38] 4% | [39] 31% | [40] 2% | [41] 12% | [42] 8% | [43] 9% | [44] 3% | [45] -2% | [46] 12% | [47] -8% | [48] 30% | [49] -2% | [50] 10% | [51] -6% | [52] 19%

— ChEMBL document CHEMBL5058645, “Data for DCP probe JNJ-6204” (2022)
